# Results taken from patent US20250177347A1, “SCLAREOL OR SCLAREOLIDE FOR USE IN THE TREATMENT OF INFLAMMATORY SKIN CONDITIONS” (ISP Investments LLC, priority 2022, published 2025).
# Assays:
# [1] = test system: C. auris KCTC17809; details: cited from earlier work
# [2] = test system: C. glabrata KCTC7219; details: cited from earlier work
# [3] = test system: C. tropicalis var. tropicalis KCTC17762; details: cited from earlier work
# [4] = test system: C. parapsilosis KACC49573; details: cited from earlier work
# [5] = test system: C. albicans KCTC7965; details: cited from earlier work
# [6] = test system: C. parapsilosis var. parapsilosis KACC45480; details: cited from earlier work
# [7] = test system: Malassezia restricta; assay: Broth microdilution MIC assay (EUCAST guidelines, slight modifications), resazurin fluorescence; type: cell-based; details: 48 h-60 h at 34° C.
# Description: Objective: Sclareolide antifungal potential on Malassezia restricta was evaluated by the broth microdilution method.
# Protocol: Malassezia restricta was routinely grown on modified Leeman-Notman (mLN) agar. The broth microdilution assay was performed following EUCAST guidelines (www.eucast.org) with slight modifications. Between five and ten colonies were suspended in a modified RPMI 1640 media supplemented with resazurin at a D.O (Density Optical) of 0.1. In a 96 well plate, serial dilutions of sclareolide (0.00023% to 0.12%) from a 24% stock solution in DMSO, and ketoconazole (0.001 to 0.25 μg/ml) solutions were prepared in modified RPMI 1640 culture medium. An equal volume of Malassezia restricta inoculum was added to the test samples at different concentrations. Following 48 h-60 h of incubation at 34° C., resazurin fluorescence was analyzed at 530 nm and 590 nm.
# Results and conclusion: Results are presented as relative fluorescence intensity compared to DMSO control. MIC is defined as the lowest drug concentration that prevents growth of microorganisms.
# [8] = test system: scalp reconstructed human epidermis; assay: Malassezia restricta applied topically to scalp reconstructed human epidermis: histology and cytokine ELISA; type: cell-based; details: sclareolide 0.12% topical, two applications
# Excerpt: Objective: Sclareolide anti-inflammatory effect and barrier function prevention was quantified by cytokine quantification and histological observation respectively
# Protocol: Malassezia restricta was applied topically to a scalp reconstructed human epidermis. This in vitro model is reconstructed from keratinocytes isolated from scalp skin. More precisely, the location of the epidermis used to isolate keratinocytes is interfollicular epidermis. These interfollicular keratinocytes was harvested and transferred into a cell culture insert and after several days of reconstruction, 100 μl of Malassezia restricta was applied on the top of the epidermis. Two days later, 100 μL sclareolide at a concentration of 0,12% was applied on the top of the epidermis, another application was performed after 24 hours. Ninety-six hours after the beginning of the Malassezia treatment, scalp reconstructed epidermis was stopped to performed histological analysis to observe modifications in the upper layers of the epidermis and the supernatant was harvested to measure inflammatory cytokine release by ELISA method.
# In parallel, sclareolide decreased the inflammation induced by Malassezia restricta by the decrease of interleukin-8 release by 40,3% illustrated by FIG. 2.
# [9] = test system: keratin 10; assay: Keratin 10 immunohistochemistry in biopsies of healthy human abdominal skin in culture; type: cell-based
# Description: Objective: The aim of this study is to show the effect of sclareolide on the synthesis of keratin 10 in biopsies of healthy abdominal skin.
# Method: keratin 10 was assessed by immunohistochemistry with a specific antibody. […] Control biopsies received only 0.1% DMSO. The immunostaining was performed using paraffin sections incubated in the presence of anti-keratin 10 antibody (rabbit monoclonal, Abcam). After an hour and a half of incubation followed by rinses, the sections were incubated in the presence of the secondary anti-rabbit antibody coupled with a fluorophore (Alexa Fluor® 488, Invitrogen). The sections were then examined under a fluorescence microscope (Nikon Eclipse Ni-E microscope). […] fluorescence was then observed (using NiS-AR Nikon acquisition software) and quantified by image analysis (Volocity® image analysis software, Improvision).
# (§1) This effect may be associated with a better quality of the skin barrier function.
# [10] = test system: epidermal lipids; assay: Epidermal lipids, Nile Red staining, in biopsies of healthy human abdominal skin in culture; type: cell-based
# Description: Objective: The aim of this study is to show the effect of sclareolide on the synthesis of epidermal lipids in biopsies of healthy abdominal skin.
# Method: Epidermal lipids were assessed by fluorescent staining by using the fluorescent dye Nile Red.
# […] Control biopsies received only 0.1% DMSO. The epidermal lipids staining was performed using paraffin sections incubated with 100 nM of Nile Red solution (Sigma) for 10 minutes. The sections were then examined under a fluorescence microscope (Nikon Eclipse Ni-E microscope). Red fluorescence was then observed (using NiS-AR Nikon acquisition software) and quantified by image analysis (Volocity® image analysis software, Improvision).
# as §1
# [11] = sclareolide 0.0025% in 0.1% DMSO, twice a day for 48 hours topically, vs 0.1% DMSO control
# [12] = skin biopsies cultures, composition comprising of sclareolide
# [13] = modified RPMI 1640, relative fluorescence vs DMSO control
smiles,measurement,setting,value
C=C[C@](C)(O)CC[C@@H]1[C@@]2(C)CCCC(C)(C)[C@@H]2CC[C@@]1(C)O [Sclareol],"Growth, biofilm formation, and yeast-hyphal transition",[1],"inhibiting growth, biofilm formation, and yeast-hyphal transition"
same,"Growth, biofilm formation, and yeast-hyphal transition",[2],"inhibiting growth, biofilm formation, and yeast-hyphal transition"
same,"Growth, biofilm formation, and yeast-hyphal transition",[3],"inhibiting growth, biofilm formation, and yeast-hyphal transition"
same,"Growth, biofilm formation, and yeast-hyphal transition",[4],"inhibiting growth, biofilm formation, and yeast-hyphal transition"
same,"Growth, biofilm formation, and yeast-hyphal transition",[5],"inhibiting growth, biofilm formation, and yeast-hyphal transition"
same,"Growth, biofilm formation, and yeast-hyphal transition",[6],"inhibiting growth, biofilm formation, and yeast-hyphal transition"
"CC(=O)N1CCN(c2ccc(OCC3COC(Cn4ccnc4)(c4ccc(Cl)cc4Cl)O3)cc2)CC1 (stereo not drawn) [ketoconazole, reference compound]",MIC,"[7]; Malassezia restricta, modified RPMI 1640",0.0625 µg/mL
"CC1(C)CCC[C@]2(C)[C@H]3CC(=O)O[C@]3(C)CC[C@@H]12 [sclareolide, Sclareolide]",Barrier function / penetration of Malassezia restricta in upper layers of the epidermis (histology),[8]; 96 h,prevented the disruption of the barrier function and the penetration of Malassezia restricta in the upper layers of the epidermis
same,Decrease of interleukin-8 release,"[8]; inflammation induced by Malassezia restricta, ELISA of supernatant at 96 h","40,3%"
same,Levels of keratin 10,[9]; [11],increase the levels of keratin 10
same,Keratin 10 expression,[9]; [12],increased
same,Levels of epidermal lipids,[10]; [11],increase the levels of epidermal lipids
same,Total lipid content,[10]; [12],increased
same,Concentration at which growth of Malassezia restricta was completely inhibited (MIC),[7]; [13],0.12%
same,Concentration from which growth of Malassezia restricta was significantly inhibited,[7]; [13],0.015%
